The record followed here is paper PMC11775380, “Discovery of Novel Nav1.7-Selective Inhibitors with the 1H-Indole-3-Propionamide Scaffold for Effective Pain Relief” (Research, 2025).

In general, IC50 refers to the concentration at which inhibition is half-maximal. Low readings indicate greater potency, high ones weaker potency.

Molecules are shown by their SMILES.

In experiment [1] the target is T1, hNav1.2 (Homo sapiens, UniProt Q99250).
T1 construct: expressed in transfected cells; host or cells: HEK293T
T1 sequence (Q99250 whole entry): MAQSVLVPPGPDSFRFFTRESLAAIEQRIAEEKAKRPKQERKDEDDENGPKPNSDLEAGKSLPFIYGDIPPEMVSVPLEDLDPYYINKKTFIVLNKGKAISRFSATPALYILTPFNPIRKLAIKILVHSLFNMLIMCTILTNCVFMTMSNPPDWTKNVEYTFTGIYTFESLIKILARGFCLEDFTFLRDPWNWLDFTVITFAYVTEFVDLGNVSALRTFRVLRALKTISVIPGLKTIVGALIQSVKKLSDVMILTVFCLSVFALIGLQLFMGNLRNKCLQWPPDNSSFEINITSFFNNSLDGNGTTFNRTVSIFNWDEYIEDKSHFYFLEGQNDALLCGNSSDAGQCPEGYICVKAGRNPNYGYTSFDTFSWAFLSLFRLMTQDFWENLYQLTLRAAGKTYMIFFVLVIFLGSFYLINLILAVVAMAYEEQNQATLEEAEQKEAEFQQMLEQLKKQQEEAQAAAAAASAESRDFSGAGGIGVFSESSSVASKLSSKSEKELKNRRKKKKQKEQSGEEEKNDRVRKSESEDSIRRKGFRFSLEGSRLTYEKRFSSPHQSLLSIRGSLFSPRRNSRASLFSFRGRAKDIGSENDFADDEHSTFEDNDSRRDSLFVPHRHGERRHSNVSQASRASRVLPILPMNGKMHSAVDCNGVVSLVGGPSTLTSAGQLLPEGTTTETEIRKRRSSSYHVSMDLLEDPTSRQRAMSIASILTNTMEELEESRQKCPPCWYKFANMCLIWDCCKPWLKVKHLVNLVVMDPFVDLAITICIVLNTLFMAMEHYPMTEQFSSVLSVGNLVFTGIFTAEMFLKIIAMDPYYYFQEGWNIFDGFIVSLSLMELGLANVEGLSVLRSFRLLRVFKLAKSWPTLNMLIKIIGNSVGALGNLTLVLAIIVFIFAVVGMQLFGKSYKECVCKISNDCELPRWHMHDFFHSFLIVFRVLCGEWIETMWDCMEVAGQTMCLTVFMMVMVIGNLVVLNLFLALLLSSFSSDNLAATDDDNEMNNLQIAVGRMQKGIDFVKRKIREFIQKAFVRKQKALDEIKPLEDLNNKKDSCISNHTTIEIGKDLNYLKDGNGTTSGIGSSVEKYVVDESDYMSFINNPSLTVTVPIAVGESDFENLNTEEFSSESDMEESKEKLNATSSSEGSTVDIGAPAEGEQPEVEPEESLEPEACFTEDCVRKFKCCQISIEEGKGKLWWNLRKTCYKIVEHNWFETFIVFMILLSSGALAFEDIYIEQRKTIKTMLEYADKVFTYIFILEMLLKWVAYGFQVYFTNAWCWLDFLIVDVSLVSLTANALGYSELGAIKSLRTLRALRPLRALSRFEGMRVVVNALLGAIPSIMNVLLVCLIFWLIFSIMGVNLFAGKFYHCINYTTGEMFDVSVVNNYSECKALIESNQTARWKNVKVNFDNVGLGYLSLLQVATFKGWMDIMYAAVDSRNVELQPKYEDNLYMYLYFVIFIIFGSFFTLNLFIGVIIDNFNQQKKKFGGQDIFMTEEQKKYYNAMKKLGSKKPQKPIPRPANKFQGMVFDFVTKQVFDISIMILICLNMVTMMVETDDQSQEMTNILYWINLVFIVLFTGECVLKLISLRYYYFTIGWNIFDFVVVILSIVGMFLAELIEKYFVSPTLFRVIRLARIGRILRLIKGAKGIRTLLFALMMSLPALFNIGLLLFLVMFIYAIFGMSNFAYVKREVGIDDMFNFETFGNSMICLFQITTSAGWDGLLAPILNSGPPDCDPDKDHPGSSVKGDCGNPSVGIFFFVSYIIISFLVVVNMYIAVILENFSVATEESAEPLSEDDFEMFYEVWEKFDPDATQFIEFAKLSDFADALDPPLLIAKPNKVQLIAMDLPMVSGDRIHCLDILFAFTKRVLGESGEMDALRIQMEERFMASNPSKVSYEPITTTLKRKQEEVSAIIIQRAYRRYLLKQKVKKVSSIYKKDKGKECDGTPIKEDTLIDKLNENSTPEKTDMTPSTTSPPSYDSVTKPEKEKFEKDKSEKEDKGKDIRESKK
Nature of the experiment: Subtype selectivity, patch clamp. The format is cell-based. Conditions: 1 μM. As for the experimental part: VGSC inhibitors required credible subtype selectivity to void side effects caused by binding to nontarget subtypes. At a concentration of 1 μM, the inhibitory rates of WN2-R on hNav1.2, hNav1.3, hNav1.4, hNav1.5, mNav1.6, and hNav1.8 were determined (n = 3 to 6, Fig. 7A). […] To further evaluate the drug safety profile, high-dose acute toxicity experiments were conducted. Mice were administered a high dose of 30 mg/kg WN2-R through i.p. administration. The rotarod test, forced-swim test, and open field test were used to explore the effect of high-dose WN2-R on the motor ability of mice (n = 4). The rotarod test evaluated the drug's effect on motor coordination, the forced-swim test examined its impact on the overall motor system, and the open field test assessed the drug's influence on the motor and nervous systems.
(§1) Human embryonic kidney (HEK) 293T (ATCC CRL-3216) and ND7/23 cells (National Collection of Authenticated Cell Cultures SCSP-5026) were cultured under standard conditions (5% CO2, 37 °C) in Dulbecco’s modified Eagle’s medium (DMEM) containing 10% fetal bovine serum and 1% penicillin-streptomycin solution(all from Gibco, Thermo Fisher Scientific, Waltham, MA, USA). When the cells reached 70% to 90% confluence, human Nav1.2 (hNav1.2), human Nav1.3 (hNav1.3), human Nav1.4 (hNav1.4), human Nav1.5 (hNav1.5), and mouse Nav1.6 (mNav1.6) channel plasmids were cotransfected with enhanced green fluorescent protein (eGFP) into HEK293T cells. Additionally, plasmids expressing β1 and β2 subunits tagged with eGFP were cotransfected with the human Nav1.7 (hNav1.7) channel into HEK293T cells. Human Nav1.8 (hNav1.8) was transiently transfected into ND7/23 cells, along with eGFP, using Lipofectamine 2000 (Invitrogen), adhering strictly to the manufacturer’s protocol. For manual patch-clamp experiments, the cells were plated onto glass coverslips and used within 20 to 48 h of transfection.
(§2) Whole-cell patch-clamp recordings were conducted at 25 ± 2 °C, utilizing an EPC 10USB patch-clamp amplifier (HEKA Elektronik, Lambrecht, Germany). Pipettes, with access resistance between 2.0 and 3.0 MΩ, were pulled from borosilicate glass capillary tubes using a 2-step vertical microelectrode puller (PC-10, Narishige Group, Tokyo, Japan). Voltage-clamp recordings were obtained with PatchMaster software v2 × 73 (HEKA Elektronik) 5 min after establishing whole-cell configuration, sampled at 20 kHz, and filtered at 5 kHz. To minimize voltage errors, 80% series resistance compensation was applied. Pipettes were filled with 140 mM CsF, 10 mM NaCl, 1 mM EGTA, and 10 mM HEPES (pH=7.4, adjusted with CsOH). The external solution contained 140 mM NaCl, 2 mM CaCl2, 1 mM MgCl2, 5 mM KCl, 10 mM HEPES, and 10 mM glucose (pH=7.4, adjusted with NaOH). IC50 values were determined in HEK293T or ND7/23 cell lines by voltage clamping at −80 mV, followed by stepping to the V1/2 of inactivation for 8 s to facilitate compound binding.
Background: In patch-clamp work, channel activity is measured electrically.

For experiment [2], the target named is T2, human Nav1.7 (hNav1.7) (Homo sapiens, UniProt Q15858).
T2 construct: expressed in transfected cells; host or cells: HEK293T
T2 sequence (Q15858 whole entry): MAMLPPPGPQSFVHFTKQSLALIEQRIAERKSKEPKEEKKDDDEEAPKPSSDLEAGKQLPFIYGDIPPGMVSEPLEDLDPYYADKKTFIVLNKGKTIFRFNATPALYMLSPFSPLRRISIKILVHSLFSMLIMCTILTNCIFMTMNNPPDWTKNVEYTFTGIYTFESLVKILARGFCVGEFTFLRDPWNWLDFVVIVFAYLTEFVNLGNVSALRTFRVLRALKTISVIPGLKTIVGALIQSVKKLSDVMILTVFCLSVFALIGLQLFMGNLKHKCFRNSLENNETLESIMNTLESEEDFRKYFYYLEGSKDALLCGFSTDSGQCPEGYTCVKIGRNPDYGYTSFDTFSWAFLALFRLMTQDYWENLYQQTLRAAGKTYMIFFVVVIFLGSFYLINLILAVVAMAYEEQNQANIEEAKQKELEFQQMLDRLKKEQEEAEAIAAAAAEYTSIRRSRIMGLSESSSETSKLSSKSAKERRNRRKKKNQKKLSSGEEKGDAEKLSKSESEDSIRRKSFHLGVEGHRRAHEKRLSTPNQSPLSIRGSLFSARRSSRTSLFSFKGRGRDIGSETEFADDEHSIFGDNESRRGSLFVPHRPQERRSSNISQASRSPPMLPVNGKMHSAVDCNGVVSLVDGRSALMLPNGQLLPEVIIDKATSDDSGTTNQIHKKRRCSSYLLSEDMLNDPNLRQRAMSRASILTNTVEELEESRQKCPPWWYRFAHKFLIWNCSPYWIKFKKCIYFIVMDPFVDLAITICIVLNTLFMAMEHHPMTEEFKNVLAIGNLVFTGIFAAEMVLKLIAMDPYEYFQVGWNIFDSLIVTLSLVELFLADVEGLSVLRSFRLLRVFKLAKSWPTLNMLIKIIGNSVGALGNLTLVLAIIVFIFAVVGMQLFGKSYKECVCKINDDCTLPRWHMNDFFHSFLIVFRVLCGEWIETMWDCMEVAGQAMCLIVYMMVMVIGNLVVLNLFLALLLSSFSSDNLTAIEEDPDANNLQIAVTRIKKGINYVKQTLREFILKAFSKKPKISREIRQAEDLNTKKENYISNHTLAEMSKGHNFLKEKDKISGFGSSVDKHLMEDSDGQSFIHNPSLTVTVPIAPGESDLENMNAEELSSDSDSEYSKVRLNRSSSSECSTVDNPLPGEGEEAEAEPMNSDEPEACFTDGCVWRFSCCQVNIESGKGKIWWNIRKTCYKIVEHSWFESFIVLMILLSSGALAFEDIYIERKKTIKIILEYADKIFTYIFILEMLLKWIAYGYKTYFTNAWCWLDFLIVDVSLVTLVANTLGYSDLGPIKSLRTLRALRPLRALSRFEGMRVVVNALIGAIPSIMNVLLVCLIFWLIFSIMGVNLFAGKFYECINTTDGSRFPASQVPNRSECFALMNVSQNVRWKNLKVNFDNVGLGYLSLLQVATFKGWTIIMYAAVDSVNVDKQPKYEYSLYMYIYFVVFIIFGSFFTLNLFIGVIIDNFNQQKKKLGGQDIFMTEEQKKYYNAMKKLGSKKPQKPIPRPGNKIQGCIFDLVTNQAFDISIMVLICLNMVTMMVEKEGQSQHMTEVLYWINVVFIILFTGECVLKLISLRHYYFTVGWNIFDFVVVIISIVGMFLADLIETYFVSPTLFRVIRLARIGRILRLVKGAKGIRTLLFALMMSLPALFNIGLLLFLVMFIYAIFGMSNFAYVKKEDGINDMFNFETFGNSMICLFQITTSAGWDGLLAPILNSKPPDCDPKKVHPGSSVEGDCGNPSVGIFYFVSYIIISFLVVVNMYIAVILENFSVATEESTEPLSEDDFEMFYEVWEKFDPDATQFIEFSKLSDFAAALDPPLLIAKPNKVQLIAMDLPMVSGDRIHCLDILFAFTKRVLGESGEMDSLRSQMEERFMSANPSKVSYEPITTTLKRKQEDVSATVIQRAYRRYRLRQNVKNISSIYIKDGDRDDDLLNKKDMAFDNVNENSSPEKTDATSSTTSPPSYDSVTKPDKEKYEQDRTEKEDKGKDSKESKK
T2 sequence (Q07699 19-218 partner): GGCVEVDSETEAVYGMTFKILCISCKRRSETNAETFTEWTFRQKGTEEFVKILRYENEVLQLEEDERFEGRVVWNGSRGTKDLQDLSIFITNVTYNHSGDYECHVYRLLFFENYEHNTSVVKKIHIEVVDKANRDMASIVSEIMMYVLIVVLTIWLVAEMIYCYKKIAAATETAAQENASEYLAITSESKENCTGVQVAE
T2 sequence (O60939 30-215 partner): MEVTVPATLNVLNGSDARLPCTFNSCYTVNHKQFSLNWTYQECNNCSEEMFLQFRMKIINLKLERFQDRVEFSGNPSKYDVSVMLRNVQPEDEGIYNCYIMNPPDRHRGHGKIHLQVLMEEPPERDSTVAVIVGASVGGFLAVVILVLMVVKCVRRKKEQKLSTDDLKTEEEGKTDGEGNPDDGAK
The experiment can be described thus: Whole-cell patch-clamp inhibition of Nav1.7 currents in transfected HEK293T cells. The format is cell-based. The method, then: as §1, §2

In experiment [3] the test system is native K+ current (Kv channels) in DRG neurons. The experiment can be described thus: Voltage-clamp recording of native K+ current in DRG neurons. The format is cell-based. The note with it: 10 μM; mouse DRG neurons. As for the experimental part: (§3) To investigate the mechanism of action of WN2-R and facilitate animal model experiments, we used voltage-clamp recording to test the effects of WN2-R on the native Na^+-, K^+-, and Ca^2+-mediated currents in DRG neurons. […] Furthermore, the effects of WN2-R on membrane excitability were examined in small (<30 μm) DRG neurons from mice using current-clamp recordings.
(§4) DRG isolation and culture were performed according to our previous report. Briefly, C57BL/6 mice (weight 18 to 20 g, 6 to 8 weeks) were euthanized via cervical dislocation under anesthesia. Lumbar DRGs were isolated from the L4 to L5 segments of the lumbar spinal cord. The DRG neurons were subsequently dissociated through enzymatic digestion with collagenase (0.32 mg/ml) and trypsin (0.15 mg/ml) at 37 °C for 30 min, with intermittent shaking. After centrifugation at 800 rpm for 5 min at room temperature, the cells were seeded onto poly-L-lysine-coated coverslips and cultured in DMEM (Gibco) supplemented with 10% fetal bovine serum (Gibco). […]
(§5) For recording Nav currents of DRG neurons, the bath solution contains (in mM) 30 NaCl, 1 MgCl2, 1.8 CaCl2, 5 CsCl, 5 KCl, 25 D-glucose, 5 HEPES, 0.1 CdCl2, and TEA-Cl (pH 7.4 with NaOH), and the pipette solution contains (in mM) 135 CsCl, 10 NaCl, and 5 HEPES (pH 7.4 with CsOH). The Nav current program is recorded following the above method. […]

Experiment [4] has as its system native Ca2+ current (Cav channels) in DRG neurons. The experiment can be described thus: Voltage-clamp recording of native Ca2+ current in DRG neurons. The format is cell-based. The note with it: 10 μM; mouse DRG neurons. As for the experimental part:
as §3, §4, §5

Experiment [5] concerns small (<30 μm) DRG neurons. The experiment can be described thus: Current-clamp recording of action potential firing (membrane excitability). Conditions: 10 μM. The format is cell-based, mouse. The method, then:
as §3, §4, §5

Turning to `Cc1ccc(Cn2cc([C@H](CC(=O)NCCN(C)C)c3ccc(F)cc3)c3ccccc32)cc1` [WN2-R], the “Inhibitory rate on hNav1.2” value in experiment [1] is on record as “much lower than that on Nav1.7”. In addition, the “Activity of P1 relative to P2” value in experiment [2] (ratio of Nav1.7 IC50 values of the enantiomers) is 4.57 times. The half-inhibitory concentration (IC50) in experiment [2] (−80 mV holding, step to V1/2 of inactivation for 8 s, HEK293T) was 24.7 ± 9.4 nM. Further, the “Effect on native K+ current” value in experiment [3] was “almost no effect”. In addition, the “Effect on native Ca2+ current” value in experiment [4] was “almost no effect”. The “Action potential (AP) firing in response to depolarizing currents” value in experiment [5] is listed as “markedly reduced”.
